Data set [1] is described as follows: Cytotoxicity in HeLa cells (ATP content, ATPlite kit). It is filed as cell-based. The following applies: human. The protocol:
(§1) Black 384-well clear-bottom microtiter plates (Corning, Amsterdam, The Netherlands) were filled via acoustic drop ejection using the echo liquid handler (Labcyte, Sunnyvale, California). 200 nL of compound stock solutions (100% DMSO) were transferred to the assay plates. 9 serial 4-fold dilutions of compound were made, creating per quadrant the same compound concentration. The assay was initiated by adding 10 µL of culture medium to each well (RPMI medium without phenol red, 10% FBS-heat inactivated, 0.04% gentamycin (50 mg/mL). All addition steps are done by using a multidrop dispenser (Thermo Scientific, Erembodegem, Belgium). Next, rgRSV224 virus (MOI = 1) diluted in culture medium was added to the plates. rgRSV224 virus is an engineered virus that includes an additional GFP gene (Hallak LK, Spillmann D, Collins PL, Peeples ME. Glycosaminoglycan sulfation requirements for respiratory syncytial virus infection; Journal of virology (2000), 74(22), 10508-13) and was in-licensed from the NIH (Bethesda, MD, USA). Finally, 20 µL of a HeLa cell suspension (3,000 cells/well) were plated. Medium, virus- and mock-infected controls were included in each test. The wells contain […] DMSO per volume. Cells were incubated at 37° C. in a 5% CO2 atmosphere. Three days post-virus exposure, viral replication was quantified by measuring GFP expression in the cells by an in house developed MSM laser microscope (Tibotec, Beerse, Belgium). The EC50 was defined as the 50% inhibitory concentration for GFP expression. In parallel, compounds were incubated for three days in a set of white 384-well microtiter plates (Corning) and the cytotoxicity of compounds in HeLa cells was determined by measuring the ATP content of the cells using the ATPlite kit (Perkin Elmer, Zaventem, Belgium) according to the manufacturer’s instructions. The CC50 was defined as the 50% concentration for cytotoxicity.
In general terms: In ATP-based viability assays light output follows the ATP content of the culture.

A further data set concerns rgRSV224 virus. In words: Antiviral activity: rgRSV224 (GFP) replication in HeLa cells. The format is cell-based, respiratory syncytial virus (RSV). Particulars: human respiratory syncytial virus, HeLa. Here is the method:
as §1

Setting [2] is: 72 h, read-out: RSV HELA EC50, HeLa cells, rgRSV224 MOI = 1, GFP expression three days post-virus exposure, averaged data of several repeat experiments.

The CC50 is the concentration at which the toxic effect on the cells reaches its halfway point. The low end stands for greater toxicity to the cells, the high end for lower toxicity to the cells. Broadly, the EC50 is the concentration needed to bring the measured effect to its halfway point.

Like-named read-outs stand apart in the source and are kept apart here.

Molecule `COc1cc(C(=O)NCC(O)(c2cc(C(C)(C)O)c(F)c(-c3ccc(F)cc3)n2)[C@@H]2CC2(F)F)cc2cc(C)nnc12` (stereo in doubt) [compound 320, N-((*S)-2,2-Difluorocyclopropyl)-2-(5-Fluoro-6-(4-Fluorophenyl)-4-Hydroxypropan-2-yl)Pyridin-2-yl)-2-Hydroxyethyl)-8-MZthoxy-3-Methylcinnoline-6-Carboxamide] returned a 50% cytotoxic concentration (CC50) at 3 days in data set [1] (TOX HELA CC50) of 24 µM. The EC50 in the data set with rgRSV224 virus (setting [2]) worked out at 0.001 µM.

Take `CC(C)(O)c1cc([C@@](O)(CNC(=O)c2cc(OC3CC3)c3ncccc3c2)C(F)(F)F)nc(-c2ccc(F)cc2)c1F` [Compound A, reference compound]: in data set [1] (CC50), the midpoint of cytotoxicity, the CC50 at 3 days, lay at 37 µM. Further, in the data set on rgRSV224 virus (comparison table 5.3, antiviral RSV assay of Example 5.1), the 50% effective concentration (EC50) is 0.014 µM.

On to `COc1cc(C(=O)NC[C@](O)(c2cc(C(C)(C)O)c(Cl)c(-c3ccc(F)cc3)n2)C(F)(F)F)cc2cc(C)cnc12` [compound 200, (-)-N-{2-[5-Chloro-6-(4-Fluorophenyl)-4-(2-Hydroxypropan-2-yl)Pyridin-2-yl]-3,3,3-Trifluoro-2-Hydroxypropyl}-8-Methoxy-3-Methylquinoline-6-Carboxamide], for which the cytotoxic concentration (CC50) at 3 days in data set [1] (TOX HELA CC50) amounted to 22 µM. The EC50 with rgRSV224 virus (setting [2]) was found to be 0.0017 µM.

In turn, `COc1cc(C(=O)NC[C@](O)(c2nc(-c3ccc(F)cc3)c(F)c(C(C)(C)O)c2F)C(F)(F)F)cc2cc(C)cnc12` [compound 201, (-)-N-{2-[3,5-difluoro-6-(4-fluorophenyl)-4-(2-hydroxypropan-2-yl)pyridin-2-yl)-3,3,3-trifluoro-2-hydroxypropyl}-8-methoxy-3-methylquinoline-6-carboxamide] registered a cytotoxic concentration (CC50) at 3 days in data set [1] (TOX HELA CC50) of 43 µM. For the same molecule, in the data set with rgRSV224 virus (setting [2]), the half-maximal effective concentration (EC50) was 0.0026 µM.

The molecule `COc1cc(C(=O)NC[C@](O)(c2nc(-c3ccc(F)cc3)c(Cl)c(C(C)(C)O)c2F)C(F)(F)F)cc2cc(C)cnc12` [compound 202] had a half-maximal cytotoxic concentration (CC50) at 3 days in data set [1] (TOX HELA CC50) of 46 µM. Further, the EC50 in the data set with rgRSV224 virus (setting [2]) was 0.0048 µM.

`COc1cc(C(=O)NC[C@](O)(c2cc(C(C)(C)O)c(Cl)c(-c3ccc(F)cc3)n2)C2CC2)cc2cc(C)cnc12` [compound 205, (-)-N-{2-[5-Chloro-6-(4-Fluorophenyl)-4-(2-Hydroxypropan-2-yl)Pyridin-2-yl]-2-Cyclopropyl-2-Hydroxyethyl}-8-Methoxy-3-Methylquinoline-6-Carboxamide]: in data set [1] (TOX HELA CC50), the CC50 at 3 days stood at 32 µM. Also, the concentration for a half-maximal effect (EC50) in the data set on rgRSV224 virus (setting [2]) came to 0.00081 µM.

Consider `COc1cc(C(=O)NC[C@](O)(c2cc(C(C)(C)O)c(F)c(-c3ccc(F)cc3)n2)C2CC2)cc2cc(C)cnc12` [compound 206], for which, in data set [1] (TOX HELA CC50), the CC50 at 3 days was found to be 15 µM. Moreover, the EC50 in the data set on rgRSV224 virus (setting [2]) is 0.00046 µM.

Take `COc1cc(C(=O)NC[C@](O)(c2cc(C(C)(C)O)c(F)c(-c3ccc(C(F)(F)F)cc3)n2)C2CC2)cc2cc(C)cnc12` [compound 207]: in data set [1] (TOX HELA CC50), the CC50 at 3 days was found to be 13 µM. Also, in the data set on rgRSV224 virus (setting [2]), the concentration giving a half-maximal response (EC50) was 0.00077 µM.

In data set [1] (TOX HELA CC50), `COc1cc(C(=O)NC[C@](O)(c2cc(C(C)(C)O)c(F)c(-c3ccc(Cl)cc3)n2)C2CC2)cc2cc(C)cnc12` [compound 208, (-)-N-{2-[6-(4-chlorophenyl)-5-fluoro-4-(2-hydroxypropan-2-yl)pyridin-2-yl]-2-cyclopropyl-2-hydroxyethyl}-8-methoxy-3-methylquinoline-6-carboxamide] showed a CC50 at 3 days of 14 µM. The EC50 with rgRSV224 virus (setting [2]) came out at 0.001 µM.

Consider `COc1cc(C(=O)NC[C@](O)(c2cc(C(C)(C)O)c(F)c(-c3ccc(F)c(F)c3)n2)C2CC2)cc2cc(C)cnc12` [compound 209, (-)-N-{2-Cyclopropyl-2-[6-(3,4-Difluorophenyl)-5-Fluoro-4-(2-Hydroxypropan-2-yl)Pyridin-2-yl]-2-Hydroxyethyl}-8-Methoxy-3-Methylquinoline-6-Carboxamide], for which, in data set [1] (TOX HELA CC50), the half-maximal cytotoxic concentration (CC50) at 3 days was 25 µM. In the data set on rgRSV224 virus (setting [2]), the EC50 was determined as 0.00041 µM.

Consider `COc1cc(C(=O)NC[C@](O)(c2cc(C(C)(C)O)c(Cl)c(-c3ccc(F)cc3)n2)C(F)(F)F)cc2cc(C)c(F)nc12` [compound 210, (-)-N-{2-[5-Chloro-6-(4-Fluorophenyl)-4-(2-Hydroxypropan-2-yl)Pyridin-2-yl]-3,3,3-Trifluoro-2-Hydroxypropyl}-2-Fluoro-8-Methoxy-3-Methylquinoline-6-Carboxamide], for which the CC50 at 3 days in data set [1] (TOX HELA CC50) amounted to 23 µM. Further, the half-maximal effective concentration (EC50) with rgRSV224 virus (setting [2]) turned out to be 0.0029 µM.

`COc1cc(C(=O)NC[C@](O)(c2nc(-c3ccc(F)cc3)c(F)c(C(C)(C)O)c2F)C(F)(F)F)cc2cc(C)c(F)nc12` [compound 211, (-)-N-{2-[3,5-Difluoro-6-(4-Fluorophenyl)-4-(2-Hydroxypropan-2-yl)Pyridin-2-yl]-3,3,3-Trifluoro-2-Hydroxypropyl}-2-Fluoro-8-Methoxy-3-Methylquinoline-6-Carboxamide] showed a CC50 at 3 days in data set [1] (TOX HELA CC50) of 29 µM. Moreover, the EC50 in the data set with rgRSV224 virus (setting [2]) was 0.0028 µM.

`COc1cc(C(=O)NC[C@](O)(c2nc(-c3ccc(F)cc3)c(Cl)c(C(C)(C)O)c2F)C(F)(F)F)cc2cc(C)c(F)nc12` [compound 212, (-)-N-{2-[5-Chloro-3-Fluoro-6-(4-Fluorophenyl)-4-(2-Hydroxypropan-2-yl)Pyridin-2-yl]-3,3,3-Trifluoro-2-Hydroxypropyl}-2-Fluoro-8-Methoxy-3-Methylquinoline-6-Carboxamide] yielded a 50% cytotoxic concentration (CC50) at 3 days in data set [1] (TOX HELA CC50) of 58 µM. Also, the concentration giving a half-maximal response (EC50) with rgRSV224 virus (setting [2]) came out at 0.0071 µM.

In data set [1] (TOX HELA CC50), `COc1cc(C(=O)NC[C@](O)(c2cc(C(C)(C)O)c(Cl)c(-c3ccc(F)cc3)n2)C2CC2)cc2cc(C)c(F)nc12` [compound 215] showed a cytotoxic concentration (CC50) at 3 days of 20 µM. Besides, the EC50 in the data set with rgRSV224 virus (setting [2]) came to 0.00087 µM.

In the case of `COc1cc(C(=O)NC[C@](O)(c2cc(C(C)(C)O)c(F)c(-c3ccc(F)cc3)n2)C2CC2)cc2cc(C)c(F)nc12` [compound 216, (-)-N-{2-Cyclopropyl-2-[5-Fluoro-6-(4-Fluorophenyl)-4-(2-Hydroxypropan-2-yl)Pyridin-2-yl]-2-Hydroxyethyl}-2-Fluoro-8-Methoxy-3-Methylquinoline-6-Carboxamide], the CC50 at 3 days in data set [1] (TOX HELA CC50) is 21 µM. Besides, the EC50 in the data set with rgRSV224 virus (setting [2]) amounted to 0.00062 µM.

On to `COc1cc(C(=O)NC[C@](O)(c2cc(C(C)(C)O)c(F)c(-c3ccc(C(F)(F)F)cc3)n2)C2CC2)cc2cc(C)c(F)nc12` [compound 217, N-[(-)Cyclopropyl{5-Fluoro-4-(2-Hydroxypropanyl)-6-[4-(Trifluoromethyl)Phenyl]-Pyridinyl}Hydroxyethyl]Fluoro-8-Methoxy-3-Methylquinoline-6-Carboxamide], for which, in data set [1] (TOX HELA CC50), the midpoint of cytotoxicity, the CC50 at 3 days, lay at 14 µM. Besides, the EC50 with rgRSV224 virus (setting [2]) is 0.0013 µM.

Molecule `COc1cc(C(=O)NC[C@](O)(c2cc(C(C)(C)O)c(F)c(-c3ccc(F)c(F)c3)n2)C2CC2)cc2cc(C)c(F)nc12` [compound 218, (-)-N-{2-Cyclopropyl-2-[6-(3,4-Difluorophenyl)-5-Fluoro-4-(2-Hydroxypropan-2-yl)Pyridin-2-yl]-2-Hydroxyethyl}-2-Fluoro-8-Methoxy-3-Methylquinoline-6-Carboxamide] came in with a 50% cytotoxic concentration (CC50) at 3 days in data set [1] (TOX HELA CC50) of 16 µM. Besides, the EC50 in the data set with rgRSV224 virus (setting [2]) is 0.0012 µM.

Molecule `Cc1cnc2c(OC3CC3)cc(C(=O)NC[C@](O)(c3cc(C(C)(C)O)c(Cl)c(-c4ccc(F)cc4)n3)C(F)(F)F)cc2c1` [compound 219, (-)-N-{2-[5-Chloro-6-(4-Fluorophenyl)-4-(2-Hydroxypropan-2-yl)Pyridin-2-yl]-3,3,3-Trifluoro-2-Hydroxypropyl}-8-(Cyclopropyloxy)-3-Methylquinoline-6-Carboxamide] registered a CC50 at 3 days in data set [1] (TOX HELA CC50) of 27 µM. Besides, the 50% effective concentration (EC50) in the data set with rgRSV224 virus (setting [2]) turned out to be 0.005 µM.

In data set [1] (TOX HELA CC50), `Cc1cnc2c(OC3CC3)cc(C(=O)NC[C@](O)(c3nc(-c4ccc(F)cc4)c(F)c(C(C)(C)O)c3F)C(F)(F)F)cc2c1` [compound 220, (-)(Cyclopropyloxy)-N-{2-[3,5-Difluoro-6-(4-Fluorophenyl)-4-(2-Hydroxypropan-2-yl)Pyridin-2-yl]-3,3,3-Trifluoro-2-Hydroxypropyl}-3-Methylquinoline-6-Carboxamide] returned a half-maximal cytotoxic concentration (CC50) at 3 days of 36 µM. Moreover, the EC50 in the data set on rgRSV224 virus (setting [2]) worked out at 0.0024 µM.

With `Cc1cnc2c(OC3CC3)cc(C(=O)NC[C@](O)(c3nc(-c4ccc(F)cc4)c(Cl)c(C(C)(C)O)c3F)C(F)(F)F)cc2c1` [compound 221, (-)-N-{2-[5-Chloro-3-Fluoro-6-(4-Fluorophenyl)-4-(2-Hydroxypropan-2-yl)Pyridin-2-yl]-3,3,3-Trifluoro-2-Hydroxypropyl}-8-(Cyclopropyloxy)-3-Methylquinoline-6-Carboxamide], in data set [1] (TOX HELA CC50), the CC50 at 3 days was found to be 65 µM. The concentration giving a half-maximal response (EC50) in the data set on rgRSV224 virus (setting [2]) stood at 0.0093 µM.

On to `Cc1cnc2c(OC3CC3)cc(C(=O)NC[C@](O)(c3cc(C(C)(C)O)c(Cl)c(-c4ccc(F)cc4)n3)C3CC3)cc2c1` [compound 222, (-)-A-{2-[5-Chloro-6-(4-Fluorophenyl)-4-(2-Hydroxypropan-2-yl)Pyridin-2-yl]-2-Cyclopropyl-2-Hydroxyethyl}-8-(Cyclopropyloxy)-3-Methylquinoline-6-Carboxamide], for which the CC50 at 3 days in data set [1] (TOX HELA CC50) worked out at 27 µM. Besides, the EC50 in the data set with rgRSV224 virus (setting [2]) is 0.0015 µM.

The values are drawn from patent US20230203004A1, “RSV INHIBITING 3-SUBSTITUTED QUINOLINE AND CINNOLINE DERIVATIVES” (Janssen Sciences Ireland Unlimited Company, priority 2020, published 2023).
